Drawing on PubChem BioAssay AID1322 (NMMLSC, 2008), this text covers inhibition, outcome and EC50 for 90 compounds.

This experiment has as its target Bcl-2-like protein 1 (Homo sapiens) (UniProt Q07817). As to the kind of experiment: Bim-Bcl-XL interaction inhibitors, potency, dose response, biochemical, multiplexed, bead flow cytometry, human Bcl-XL (AID 1322). On inhibition: test concentration not given here. The settings on record: Bead-based flow cytometry, Bim peptide-Bcl-XL binding, MCF; for inhibition: hits give high values.

The structures appear in SMILES notation. The source made the active and inactive calls. How the calls were made is not given here.

Sequence of Bcl-2-like protein 1 (Homo sapiens) (Q07817 whole entry, looked up): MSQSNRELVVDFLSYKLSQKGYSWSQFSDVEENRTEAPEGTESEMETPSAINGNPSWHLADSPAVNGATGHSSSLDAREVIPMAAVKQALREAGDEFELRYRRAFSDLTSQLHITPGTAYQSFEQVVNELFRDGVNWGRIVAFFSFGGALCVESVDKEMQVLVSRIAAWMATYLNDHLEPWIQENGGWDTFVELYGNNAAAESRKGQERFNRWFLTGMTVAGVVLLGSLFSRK

In the case of `CCOC(=O)C1CCCN(c2ncnc3c2cnn3-c2cccc(C)c2)C1` (stereo not given), the inhibition result is “inactive”. With `COCCNC(=S)Nc1cc(OC)c(OC)cc1C#N`, the inhibition entry was “inactive”. `CCOC(=O)C1(CC/C(C)=N\NC(N)=O)CC(C)(C)OC1=O` (stereo not given): the inhibition result is “inactive”. As for `Cc1c(N=C2C=CC(=O)c3ccccc32)c(=O)n(-c2ccccc2)n1C`, the inhibition entry was “inactive”.

Regarding `O=C(CSc1nnc(-c2cccs2)n1Cc1ccco1)c1ccc2c(c1)OCO2`, the inhibition entry is “inactive”.

Consider `Cc1ccc(C)c(Oc2ncnc(N)c2[N+](=O)[O-])c1`, for which the inhibition entry is “inactive”. Consider `Cc1ccc(C(=O)CCC(=O)Nc2ccc(Cl)c(S(=O)(=O)Nc3cccc(Cl)c3)c2)cc1`, for which the inhibition result was “inactive”. In the case of `Cc1cc(-c2csc(N)n2)c(C)n1CCc1ccccc1`, the inhibition result is “inactive”. `Cc1ccc2cc(C)c(Sc3nnnn3-c3ccccc3)nc2c1`: the inhibition result is “inactive”. Consider `Cc1ccc(/C=C2\CCCC3=C2NC(=S)NC3c2ccc(C)cc2)cc1` (stereo not given), for which the inhibition result was “inactive”. As for `CC(=O)NC(=O)Nc1sc(=S)n(C)c1C`, the inhibition entry was “inactive”. Consider `COc1ccc(S(=O)(=O)NCCSc2ccc(Cl)cc2)cc1OC`, for which the inhibition entry was “inactive”. Consider `CCOC(=O)CSC1=NC(=O)/C(=C\c2ccc(OC(C)=O)cc2)S1`, for which the inhibition entry was “inactive”. For `OC(CNC1CCCCC1)COCCOc1ccc(Br)cc1` (stereo not given), the inhibition entry was “inactive”. Turning to `COCCN=c1scc(-c2ccco2)n1/N=C/c1ccc(O)c(O)c1O`, the outcome was inactive. Turning to `CN(C)C(Cc1ccccc1)C(=O)c1cccs1` (stereo not given), the outcome was inactive.

Turning to `O=C1C=C(Nc2ccccc2)C(=O)c2ccccc21`, the inhibition result is “inactive”. With `O=C1C(Cl)=C(N2CCN(c3ccccc3[N+](=O)[O-])CC2)C(=O)c2ccccc21`, the inhibition result was “inactive”.

Turning to `CC1(C)CC(NC(=O)COc2ccc([N+](=O)[O-])cc2)CC(C)(C)N1`, the inhibition result is “inactive”. Turning to `CCOc1ccccc1NC(=O)CSc1ccc2nnc(-c3cccnc3)n2n1`, the inhibition entry was “inactive”. On the same count and under the same terms, in the case of `C#CCOCCOCCOCCNc1nc(N2CCN(C(=O)[C@H](CCCCN)n3cc(CCCC)nn3)CC2)nc(N2CCN(C(=O)[C@H](Cc3ccc(O)cc3)n3cc(CCO)nn3)CC2)n1` it was “inactive”; in that of `CCN1CCN(c2cc(C)c3cc(NC(=S)N4CCN(c5ccc(F)cc5)CC4)ccc3n2)CC1`, “inactive”. Same read-out and setting: as for `CCc1nnc(NC(=O)CSc2nnc(COc3ccc(C)cc3)n2-c2ccccc2)s1`, the entry is “inactive”; as for `O=C(c1cc2ccccc2oc1=O)N(c1ccccc1)C1C=CS(=O)(=O)C1` (stereo not given), “inactive”; as for `Cc1cc2nn(-c3cccc4ccccc34)nc2cc1N`, “inactive”. Turning to `Cc1c(NC2=C(Cl)C(=O)N(c3ccccc3)C2=O)c(=O)n(-c2ccccc2)n1C`, the inhibition result is “inactive”. Turning to `COc1ccc(N2CCN(CCCNC(=O)CCCn3c(=O)[nH]c4ccsc4c3=O)CC2)cc1`, the inhibition entry is “inactive”. The same measure, in the same setting: in the case of `Cc1nc(NC(=O)CC(C)C)sc1-c1csc(Nc2ccc(Cl)cc2)n1` it was “inactive”. For the compound `CC1Nc2ccccc2C(=O)N1NS(=O)(=O)c1ccccc1` (stereo not given), the result was inactive. Turning to `c1coc(C2=Nc3cccc4cccc(c34)N2)c1`, the inhibition entry is “inactive”.

On to `CCOc1ccc(C(=O)Nc2nnc(NC(=S)Nc3ccccc3)s2)cc1`, for which the inhibition entry was “inactive”. Still for that read-out and setting: in the case of `Cc1ccc(C(=O)N/N=C2/NC(=O)CC(C(=O)Nc3ccccc3)S2)cc1` (stereo not given) it was “inactive”. Turning to `COc1cc(/C=N/Nc2nn3cnnc3c3ccccc23)ccc1O`, the EC50 entry is “inactive”. Regarding `O=C(CSc1nnc(-c2ccccc2)c(-c2ccccc2)n1)N1CCc2ccccc21`, the inhibition result was “inactive”. As for `Cn1c(CCNC(=O)C2CCCCC2)nc2cc(NC(=O)c3cccs3)ccc21`, the result was inactive.

For the compound `CC(NC(=O)Nc1ccccn1)N1C(=O)C2C3C=CC(C3)C2C1=O` (stereo not given), the inhibition entry was “inactive”. The same measure, in the same setting: in the case of `COc1ccc(NC(=O)c2sccc2SCc2cccc(C(F)(F)F)c2)cc1` it was “inactive”. As to `O=C(Nc1nnc(SCc2ccccn2)s1)C1CC(=O)N(c2ccccc2)C1` (stereo not given), the inhibition result was “inactive”. Still for that read-out and setting: as for `Cc1ccc(N=C2NC(=O)/C(=C/C=C/c3ccco3)S2)cc1`, the entry is “inactive”; as for `CCOC(=O)/C(=C\c1ccc(Cl)cc1)c1nc2sc(C)c(C)c2c(=O)[nH]1`, “inactive”. For the compound `Cc1ccnc(NS(=O)(=O)c2ccc(NC(=O)c3c(-c4ccccc4Cl)noc3C)cc2)n1`, the inhibition result is “inactive”. Turning to `Cc1cc(/C=C(/C#N)C(=O)Nc2ccc(Cl)cc2)c(C)n1-c1cccnc1`, the inhibition result is “inactive”.

As for `Cc1ccc(NC(=O)C/C(N)=N/OC(=O)c2ccccc2)cc1`, the inhibition entry was “inactive”. For `CNCc1ccccc1Sc1ccc(O)c(O)c1`, the inhibition result was “inactive”. Still for that read-out and setting: in the case of `Cc1ccc(-c2n[nH]c(=S)n2-c2ccccc2)cc1` it was “inactive”.

Turning to `CCOc1ncccc1C(=O)OC(C)C(=O)Nc1ccc(CC)cc1` (stereo not given), the outcome was inactive.

Regarding `O=C(Nc1cccc(Cl)c1)Nc1ccc(Cl)cn1`, the inhibition entry is “inactive”.

With `Cc1ccc(-c2cc(C(=O)N3CCN(c4ncccn4)CC3)c3cc(Br)ccc3n2)o1`, the inhibition entry is “inactive”. For the compound `O=C(O)CCN1C(=O)/C(=C\c2ccc(-c3nc4ccccc4s3)o2)SC1=S`, the inhibition result is “inactive”. Turning to `COc1ccc(NC(=O)c2ccc3c(c2)NC(=O)CS3)cc1S(=O)(=O)Nc1ccc(Br)cc1`, the inhibition result is “inactive”. Consider `CSc1ccccc1NC(=O)CN(C)CC(=O)Nc1ccc(N2CCOCC2)cc1`, for which the outcome was inactive.

Turning to `CC[n+]1c(/C=C/C=C/N(C(C)=O)c2ccccc2)sc2ccccc21`, the inhibition entry is “inactive”. In the case of `CC1C=CCC2C(=O)N(c3ccc(OC(=O)c4cccs4)cc3)C(=O)C12` (stereo not given), the outcome was inactive. As for `CC(C)(C)NC(=O)COc1ccc(CNc2ccc3[nH]c(=O)[nH]c3c2)cc1`, the inhibition entry is “inactive”. With `O=C(NCC1CCCO1)c1ccc2c(=O)n(-c3ccc(F)cc3)c(=S)[nH]c2c1` (stereo not given), the inhibition entry was “inactive”. On to `CC(C)NS(=O)(=O)c1ccc(OCC(=O)Nc2ccc(F)cc2)cc1`, for which the inhibition result was “inactive”. On to `CC1CC2=C(NC(=S)NC2c2cccc(F)c2)/C(=C/c2cccc(F)c2)C1` (stereo not given), for which the result was inactive. In the case of `Cc1ccc(N=Cc2c(O)n(-c3ccc4c(c3)OCO4)c(=O)c3ccccc23)cc1`, the inhibition result is “inactive”. The same measure, in the same setting: in the case of `Cc1ccc(/C=N/NC(=O)CSc2nnc(-c3ccc(Cl)cc3)n2-c2ccccc2)o1` it was “inactive”; in that of `Cc1cc(C)nc(/N=c2/ssnc2Cl)c1`, “inactive”. As for `CCOc1ccccc1CNc1ccc(O)cc1`, the result was inactive. Regarding `Cn1c(CNc2nc(-c3ccccc3)cs2)nnc1SCC(=O)N1CCc2ccccc21`, the inhibition result was “inactive”.

Consider `COc1ccc(CC(=O)Nc2ccc(-c3nc4cc(C)ccc4o3)c(O)c2)cc1OC`, for which the inhibition entry is “inactive”. `O=C1c2ccccc2C(=O)N1CN(C(=O)COc1ccc(Cl)cc1Cl)c1cccc(F)c1`: the inhibition result is “inactive”. As for `COC(=O)c1sc(NC(=O)c2ccc(Cn3cc(Cl)cn3)o2)c(C#N)c1C`, the inhibition result was “inactive”.

Turning to `CC(C)(C)c1nc(NCCN2CCOCC2)c2nnn(Cc3ccccc3Cl)c2n1`, the inhibition entry is “inactive”. As for `O=C(c1cnccn1)N(Cc1cccs1)C1(C(=O)NC2CCCCC2)CCCCC1`, the result was inactive. On to `COC(=O)Cc1ccc(NC(=S)N2CCN(c3cccc(O)c3)CC2)cc1`, for which the inhibition result was “inactive”. `CCc1cccc(CC)c1-n1c(-c2cccnc2)n[nH]c1=S`: the inhibition result was “inactive”. Turning to `COC(=O)c1cccc(-n2c(C)cc(C=O)c2C)c1`, the result was inactive. In the case of `O=C(OCc1nc2ccccc2[nH]1)C12CC3CC(CC(C3)C1)C2`, the inhibition result is “inactive”.

Consider `CCn1c(C)nc2cc(C(=O)N/N=C/c3ccc(O)c(O)c3O)ccc21`, for which the inhibition result was “inactive”. On the same count and under the same terms, in the case of `Cc1ccc2c(c1)c(C)c(C)n2CC(O)Cn1nc(C)c(Br)c1C` (stereo not given) it was “inactive”. As for `CCOC(=O)CSC1=NC(=O)/C(=C/c2ccc(Br)cc2)S1`, the result was inactive.

Take `O=[N+]([O-])c1ccc(N2CCN(c3ccc(O)cc3)CC2)c(Cl)c1`: the inhibition entry is “inactive”.

In the case of `COc1ccc(C(=O)Nc2ccc(NC(=O)c3cccs3)cc2)cc1Cl`, the inhibition entry is “inactive”. On to `CCOC(=O)c1c(NC(C)=O)sc2c(O)c(Br)cc(Br)c12`, for which the inhibition entry is “inactive”. Take `CC(CCc1ccccc1)NC(=O)C1CCN(S(=O)(=O)N2CCCCC2)CC1` (stereo not given): the inhibition result was “inactive”. The same measure, in the same setting: as for `CN(C)c1ccc(Nc2nc(-c3cccnc3)cs2)cc1`, the entry is “inactive”; as for `O=C(Nc1nccs1)c1ccc(COc2ccc(F)cc2)o1`, “inactive”. For `C=CCN1C(=O)/C(=C/c2ccsc2)SC1=S`, the result was inactive. With `Cc1ccc(-n2[nH]c(C)c(/C=N/Nc3ccc([N+](=O)[O-])cc3[N+](=O)[O-])c2=O)cc1C`, the inhibition entry is “inactive”.

For `COc1ccc2c3c(cccc13)N(C)N=C2C`, the inhibition entry was “inactive”. Turning to `COC(=O)CSc1ncnc2c1sc1nc(-c3ccco3)c3c(c12)CC(C)(C)OC3`, the inhibition entry was “inactive”.

Take `CC(=O)Nc1ccc(NC2=C(Cl)C(=O)c3ccccc3C2=O)cc1`: the inhibition result was “inactive”. As for `COc1cc(CNc2ccc(N3CCCC3)cc2)cc(Cl)c1OC`, the inhibition result is “inactive”. The same measure, in the same setting: as for `Cc1ccc(NC(=O)CSc2nc3ccccc3c(=O)n2CCCN2CCCCC2)cc1Cl`, the entry is “inactive”; as for `COc1ccc(OC)c2sc(NC(=O)c3ccc(Br)s3)nc12`, “inactive”; as for `Cc1cc(-c2csc(N)n2)c(C)n1CCC(C)C`, “inactive”. For the compound `COc1ccc(NC(=O)c2cc(-c3ccc(C)o3)nc3ccccc23)cc1OC`, the inhibition result was “inactive”.
